According to patent US20230285411A1, “DRUG FORMULATION CONTAINING SEPETAPROST” (SANTEN PHARMACEUTICAL CO., LTD., priority 2020, published 2023):

Experiments:
Assay type in all cases: in vivo, cynomolgus monkey
[1] = tested on: monkeys with an inadequate response to latanoprost; experiment: Test for effect of latanoprost on lowering intraocular pressure in monkeys with inadequate response to latanoprost; details: for intraocular pressure change value: 20 μL/eye once
Experimental: Latanoprost eye drop was administered to the monkeys with an inadequate response to latanoprost, and its effect on lowering the intraocular pressure at 10 and 12 hours after the administration was evaluated.
(§1) (Eye Drop) • Latanoprost eye drop: Xalatan® Eye Drops 0.005% (w/v) (Pfizer Japan Inc.)
(§2) (Test Animals) • Cynomolgus monkeys: 7 animals (sex: male) selected in “1. Selection of monkeys with inadequate response to latanoprost”
(§3) <Methods for Administration and Measurement> • (1) An intraocular pressure was measured immediately before administering the test eye drop and was defined as the pre-administration intraocular pressure value (0 hour). • (2) The test eye drop was administered once (20 μL/eye) to one eye (right eye) of the test animals using a PIPETMAN. The contralateral eye was untreated. • (3) An intraocular pressure was measured at 10 and 12 hours after the administration. The intraocular pressure was measured three times for each to calculate its average value. An intraocular pressure change value (mmHg) was calculated as the difference from the pre-administration intraocular pressure value (0 hour) at each measurement time point.

[2] = tested on: cynomolgus monkeys (monkeys with normal intraocular pressure), selected monkeys with an inadequate response to latanoprost; experiment: Selection of monkeys with inadequate response to latanoprost: intraocular pressure after single latanoprost eye drop; details: for intraocular pressure change value: 0.005% (w/v) eye drop, 20 μL/eye once, 7 selected monkeys
Experimental: 1. Selection of monkeys with inadequate response to latanoprost Latanoprost eye drop was administered to cynomolgus monkeys (monkeys with normal intraocular pressure) and each individual animal was examined for responsiveness to latanoprost to select monkeys with an inadequate response to latanoprost.
as §1
(Test Animals) • Cynomolgus monkeys: 32 animals (Sex/male)
as §3, with “2, 4,” for “10”, “6” for “12”
The test was conducted as a crossover study. A physiological saline solution was administered as a test eye drop to a control group. Two series of administering the latanoprost eye drop were conducted and designated as a latanoprost (first time) group and a latanoprost (second time) group, respectively.

[3] = tested on: monkeys with an inadequate response to latanoprost; experiment: Test for effect of sepetaprost on lowering intraocular pressure in monkeys with inadequate response to latanoprost; details: for intraocular pressure lowering action: 10 and 12 hours after the administration, in words; for intraocular pressure lowering width / intraocular pressure change value: 0.002% (w/v) eye drop; for intraocular pressure change value: 20 μL/eye once
Experimental: Sepetaprost eye drop was administered to monkeys with an inadequate response to latanoprost, and its effect on lowering the intraocular pressure at 10 and 12 hours after the administration was evaluated.
(Eye Drop) • Sepetaprost eye drop: Sepetaprost was dissolved in a base, and then, a sepetaprost eye drop with a concentration of 0.002% (w/v) was prepared by using a commonly used method.
as §2
as §3, with “[…].” for “PIPETMAN.”
The test was conducted as a crossover study. The above-mentioned base was administered as a test eye drop to a control group. Two series of administering the sepetaprost eye drop were conducted and designated as a sepetaprost (first time) group and a sepetaprost (second time) group, respectively.

[4] = 12 hours after administration, 0.005% (w/v) eye drop
[5] = first time group, 10 hours after administration
[6] = first time group, 12 hours after administration
[7] = second time group, 10 hours after administration
[8] = second time group, 12 hours after administration

CC(C)OC(=O)CCC/C=C\C[C@@H]1[C@@H](CC[C@@H](O)CCc2ccccc2)[C@H](O)C[C@@H]1O [Latanoprost, latanoprost]
intraocular pressure change value ([1]; 10 hours after administration, 0.005% (w/v) eye drop): −0.5 mmHg | intraocular pressure lowering width [1, 4]: 1.2 mmHg | intraocular pressure change value [1, 4]: −1.2 mmHg | intraocular pressure lowering effect ([1]; up to 12 hours after the administration, in words): inadequate | change over time in the intraocular pressure ([2]; first time and second time groups, up to 6 hours after the administration, in words): little change over time | intraocular pressure change value ([2]; first time group, 2 hours after administration): 1.0 mmHg | intraocular pressure change value ([2]; first time group, 4 hours after administration): −0.2 mmHg | intraocular pressure change value ([2]; first time group, 6 hours after administration): −0.6 mmHg | intraocular pressure change value ([2]; second time group, 2 hours after administration): 0.4 mmHg | intraocular pressure change value ([2]; second time group, 4 hours after administration): 0.0 mmHg | intraocular pressure change value ([2]; second time group, 6 hours after administration): −0.1 mmHg

CC(C)OC(=O)CCC[C@H]1CC[C@@H]2[C@@H](/C=C/[C@@H](O)COc3cc(F)ccc3F)[C@H](O)C[C@@H]2OC1 [Sepetaprost, 2-propanyl 4-{(3S,5aR,6R,7R,8aS)-6-[(1E,3R)-4-(2,5-difluorophenoxy)-3-hydroxy-1-buten-1-yl]-7-hydroxyoctahydro-2H-cyclopenta[b]oxepin-3-yl}butanoate]
intraocular pressure lowering action [3]: adequate | intraocular pressure lowering action ([3]; listed as sepetaprost eye drop): significant | intraocular pressure lowering width [3, 5]: 3.1 mmHg | intraocular pressure change value [3, 5]: −3.1 mmHg | intraocular pressure lowering width [3, 6]: 3.3 mmHg | intraocular pressure change value [3, 6]: −3.3 mmHg | intraocular pressure lowering width [3, 7]: 2.6 mmHg | intraocular pressure change value [3, 7]: −2.6 mmHg | intraocular pressure lowering width [3, 8]: 3.4 mmHg | intraocular pressure change value [3, 8]: −3.4 mmHg
